Source: patent US20050019258A1, “Compound testing method” (priority 2003, published 2005)
Like-named read-outs stand apart in the source and are kept apart here.

Experiments:
[1] = test system: guinea-pig bladder; test: Ice-water test (IWT) in anaesthetised guinea-pig bladder, effect of menthol; format: in vivo
Experimental: (§1) Anaesthesia was induced in female Dunkin-Hartley guinea-pigs (326-416 g) by exposure to 4% halothane in oxygen. A surgical level of anaesthesia was then obtained by administration of 1.2 g/kg i.p. urethane followed by 40 mg/kg α-chloralose via a catheterised jugular vein. Supplementary doses of urethane (0.05 g/kg i.v.) were given if required. Rectal temperature was maintained between 36.5 and 37° C. via a Harvard homeothermic blanket control unit and additional heating lamp. […] The trachea was cannulated and the animals artificially respired using an Ugo-Basile rodent ventilator. A carotid arterial blood sample (0.3 ml) was analysed for blood gases using a GEM Premier 3000 analyser and the ventilation volume adjusted, with air intake enriched with O2 if necessary, to set the level of blood PO2>70 mmHg, PCO2<40 mmHg and pH between 7.36 and 7.46.
(§2) The urinary bladder was exposed via a midline laparotomy and a double lumen catheter inserted into the lumen through an incision in the dome. The catheter was tied in place below the flanged tip of the outer tubing, followed by closure of the abdominal incision. […] The amplified EUS electromyogram (EUS EMG), the integrated EUS EMG and bladder pressure signals were recorded using Spike2 software (Cambridge Electronic Design). […]

[2] = test system: bladder cooling reflex; conditions: 0.5 mM menthol in patients; cited from earlier work
[3] = test system: bladder cooling reflex; conditions: 0.6 mM menthol in cats; cited from earlier work
[4] = test system: guinea-pig bladder; test: Ice-water test (IWT) in anaesthetised guinea-pig bladder, effect of RTX treatment; format: in vivo
Experimental: as §1, §2

[5] = test system: patients with detrusor hyperreflexia; conditions: 13 patients positive at baseline, cited from earlier work

| SMILES | threshold volume (TV) for micturition at 3° C. following menthol treatment ([1]; 0.6 mM menthol infused into bladder, 3° C. saline infusion, TV before menthol 1.90 ml, n=4) [mL] | difference in TV at 3° C. after menthol vs before menthol ([1]; 0.6 mM menthol, 95% C.I. −1.33, −0.57, p<0.001) | effect on bladder cooling reflex (shift of threshold temperature towards higher temperatures) [2] | effect on bladder cooling reflex (shift of threshold temperature towards higher temperatures) [3] | desensitisation of the 3° C. induced reduction in TV ([4]; 500 nM RTX infused into bladder) | difference of TV to 3° C. vs TV for 38° C. control response before RTX ([4]; 500 nM RTX, 100 min post RTX infusion, 95% C.I. −0.51, 0.20, p>0.05) | additional patients in whom IWT became negative ([5]; at 14 days, 50 or 100 nM RTX) | number of cases with negative IWT ([5]; at 90 days post treatment, 50 or 100 nM RTX) [cases] | number of patients in whom IWT became negative ([5]; immediately after instillation of 50 or 100 nM RTX) [patients] |
| --- | --- | --- | --- | --- | --- | --- | --- | --- | --- |
| CC1CCC(C(C)C)C(O)C1 (stereo not drawn) [menthol] | 0.95 | −0.95 | Potentiation of the bladder cooling reflex | Potentiation of the bladder cooling reflex | – | – | – | – | – |
| C=C(C)[C@]12C[C@@H](C)[C@@]34O[C@](Cc5ccccc5)(O[C@@H]1[C@@H]3C=C(COC(=O)Cc1ccc(O)c(OC)c1)C[C@]1(O)C(=O)C(C)=C[C@@H]41)O2 [RTX, resiniferatoxin] | – | – | – | – | Desensitisation | −0.16 | 2 | 8 | 4 |
